PMC9538944, “In vitro biotransformation assays using fish liver cells: Comparing rainbow trout and carp hepatocytes” (Frontiers in Toxicology, 2022)

Tested on: rainbow trout hepatocytes
Assay: In vitro hepatocyte clearance assay (substrate depletion), trout
Format: in vitro ADME, Oncorhynchus mykiss
Details: 15 °C, 4 h, 2 µM MXC / 0.5 µM BaP, mean over in vitro runs
Description: Isolation of hepatocytes from liver of rainbow trout was performed by a two-step collagenase perfusion procedure which is well established for rainbow trout ([Nabb et al., 2006]; [Fay et al., 2015]). […] In previous studies with common carp, an in vitro digestion method was used to isolate hepatocytes ([Cowan-Ellsberry et al., 2008]; [Dyer et al., 2008]). Here, we adopted the method of [Segner et al. (1993)] who used a two-step collagenase perfusion of carp liver via the Arteria coeliaca for cell isolation. With the perfusion method, the percentage of pancreatic cells in the final cell suspension is typically <5% ([Vogt and Segner, 1997]). Cryopreservation and thawing procedures applied for hepatocytes of both species were based on the standard protocols for rainbow trout ([Fay et al., 2014a]; [Fay et al., 2014b]). The viability of the cells was determined by means of the trypan blue exclusion assay and counting of stained and non-stained cells in a hemocytometer. The carp and trout primary hepatocyte suspensions used in the present study were aliquots of the in vitro preparations used in a previous study investigating the in vitro metabolite patterns of MXC ([Bischof et al., 2016]). A detailed description of the methods and materials used for the preparation of hepatocyte suspensions including the procedures for cell isolation, cryopreservation, and thawing, as well as cell counting, diluting to the target cell concentration, and heat-inactivating can therefore be taken from [Bischof et al. (2016)] and from the cited publications.
The in vitro hepatocyte clearance experiments were performed in a substrate depletion approach according to the methods previously published by [Fay et al. (2014b)]. These methods are in accordance with the procedures provided in the OECD TG 319A on the performance of in vitro hepatocyte clearance assays. In the present study, several in vitro runs with MXC and BaP using suspensions of either freshly isolated or cryopreserved hepatocytes from common carp and rainbow trout were carried out. For the different in vitro runs non-pooled hepatocytes were used, i.e. hepatocytes from different individual fish. For each run, triplicates of live cells (3 × 1 ml at nominal 2 × 10^6 cells/mL) and heat-inactivated cells as controls were dosed with the test chemical dissolved in acetonitrile (ACN) at the targeted concentration (2 µM for MXC and 0.5 µM for BaP) and incubated for 4 h at 15 °C (trout) or 20 °C (carp). MXC and BaP reactions were run side by side in the same in vitro run using the same hepatocyte suspensions. […]
Measured values of parent chemical concentration were log10-transformed and plotted against time. […]

[1] = cryopreserved trout hepatocytes
[2] = freshly isolated trout hepatocytes

SMILES	Mean in vitro intrinsic clearance (CLin vitro, int) [1]	Mean in vitro intrinsic clearance (CLin vitro, int) [2]
c1ccc2c(c1)cc1ccc3cccc4ccc2c1c34 [BaP, benzo[a]pyrene]	0.243 mL/h/10^6 cells	0.251 mL/h/10^6 cells
COc1ccc(C(c2ccc(OC)cc2)C(Cl)(Cl)Cl)cc1 [MXC, methoxychlor]	0.283 mL/h/10^6 cells	0.250 mL/h/10^6 cells
